The values below are quoted from earlier work in patent publication US8101633B2, “Preparation and utility of substituted imidazopyridine compounds with hypnotic effects” (Auspex Pharmaceuticals, Inc., priority 2006, dated 2012).

The subject of the series is cytochrome P450. Particulars: background statement.

Consider `Cc1ccc(-c2nc3ccc(C)cn3c2CC(=O)N(C)C)cc1` [zolpidem, Zolpidem], for which the “share of net intrinsic clearance accounted for by imidazopyridyl methyl group oxidation” value is roughly 12% and the “share of net intrinsic clearance accounted for by oxidation of the benzylic methyl group” value was “approximately 84%”.
